Assay results from US20230104658A1, “METHODS OF INCREASING PROGENITOR CELL PRODUCTION” (Janssen Pharmaceutica NV, priority 2021, published 2023).
Square brackets hold non-standard residues; d marks the D form. 2Nal = N[C@@H](Cc1ccc2ccccc2c1)C(=O)O; Sar = CNCC(=O)O

Legend:
LSK = experiment: Flow cytometry of femoral bone marrow, total count/femur: LSK cells (Example 1); format: in vivo, mice; conditions: after treatment for 13 days
Method: (§1) In this study, normal male C57BL/6 mice were subcutaneously injected with RWJ-800088 (TPOm) at 300 μg/kg (Day 0). […]
(§2) Tibias were flushed and digested with 1 mg/mL collagenase IV (Gibco, 17104019) and 2 mg/mL dispase (Gibco, 17105041) in Hank's balanced salt solution (HB SS) (Gibco, 24020117) for a total of 30 minutes at 37° C. with an inversion at 15 minutes. After, the cell pellet was resuspended in 1X ACK lysing buffer (Lonza, 10-548E) to lyse red blood cells. The suspension was filtered through 70 μm nylon mesh and collected for further analysis.
(§3) The bone marrow was further processed to isolate single cell populations. Then, the cells from the bone marrow and blood were subjected to flow cytometry to identify various population, including endothelial cells (EC), EPC, arterial EC, sinusoidal EC, lineage-, c-kit+, Sca-1+(LSK), megakaryocyte progenitors, short-term hematopoietic stem cell (ST-HSC), long-term HSC (LT-HSC), mesenchymal stern cell (MSC), LepR+c-mpl+MSC. The portion of blood sample was also subjected to clonogenic assay to validate the EPC population.
(§4) The cells isolated from the bone marrow and peripheral blood were incubated with
(§5) Live/Dead Zombie dye (Biolegend) in phosphate-buffered saline (PBS) at room temperature for 15 minutes. After, primary antibodies were diluted in 2% fetal bovine serum (FBS)-PBS solution and incubated with cells on ice for 30 minutes. […]

[1] = tested on: hemopoietic stem cells (HSCs); experiment: Flow cytometry of bone marrow ten days after treatment: HSCs (Example 2); format: in vivo, mice; conditions: ten days after 300 μg/kg s.c.; percentage of CD45- cells
Method: (§6) In this study, male C57BL/6 mice (8-10 weeks old) from Jackson Laboratory (Bar Harbor, Me.) were subcutaneously injected with RWJ-800088 (TPOm) at 300 μg/kg or PBS (vehicle). At day 10 after RWJ-800088 injection, the mice were sacrificed to harvest bone marrow and peripheral blood. Another set of groups was intraperitoneally injected with 5 mg/kg of plerixafor (also named AMD3100) from Sigma-Aldrich 1 hour before the sacrifice. The bone marrow was further processed to isolate single cell populations. Then, the cells from bone marrow and blood were subjected to flow cytometry to identify various populations. Bone Marrow Cell Collection
(§7) Tibias were flushed and digested with 1 mg/mL collagenase IV (Gibco, 17104019) and 2 mg/mL dispase (Gibco, 17105041) in Hank's balanced salt solution (HBSS; Gibco, 24020117) for a total of 30 minutes at 37° C. with an inversion at 15 minutes. After, cell pellet was resuspended in lx ACK lysing buffer (Lonza, 10-548E) to lyse red blood cells. The suspension was filtered through 100 μm nylon mesh and collected for further analysis.
(§8) The cells isolated from the bone marrow and peripheral blood were incubated with Live/Dead Zombie dye (Biolegend) in PBS at room temperature for 15 minutes. After, primary antibodies were diluted in 2% FBS-PBS solution and incubated with cells on ice for 30 minutes. […]

[2] = tested on: Endothelial progenitor cells (EPC); experiment: Flow cytometry of femoral bone marrow, total count/femur: endothelial progenitor cells (Example 1); format: in vivo, mice; conditions: days 3 to 13 after 300 μg/kg s.c.
Method: as §1, §2, §3, §4, §5

[3] = tested on: Myeloid progenitor cells (MPC); experiment: Flow cytometry of femoral bone marrow, total count/femur: myeloid progenitor cells (Example 1); format: in vivo, mice
Method: as §1
(§9) […] After, the cell pellet was resuspended in 1X ACK lysing buffer (Lonza, 10-548E) to lyse red blood cells. The suspension was filtered through 70 μm nylon mesh and collected for further analysis.
as §3, §4
(§10) Live/Dead Zombie dye (Biolegend) in phosphate-buffered saline (PBS) at room temperature for 15 minutes. After, primary antibodies were diluted in 2% fetal bovine serum (FBS)-PBS solution and incubated with cells on ice for 30 minutes. Cells were washed with 2% FBS-PBS solution and incubated with secondary antibodies for 30 minutes. Cells were washed again and acquired on Cytek Aurora spectral cytometer. Analysis was done through FlowJo (Tree Star) software.

[4] = tested on: Endothelial progenitor cells (EPCs); experiment: Flow cytometry of bone marrow ten days after treatment: EPCs (Example 2); format: in vivo, mice; conditions: 10 days after 300 μg/kg s.c.; percentage of CD45- cells
Method: as §6, §7, §8

Long-term HSCs = experiment: Flow cytometry of femoral bone marrow, total count/femur: long-term HSCs (Example 1); format: in vivo, mice; conditions: only by day 13 after treatment
Method: as §1, §9, §3, §4, §10

[5] = tested on: myeloid progenitor cells (MPCs); experiment: Flow cytometry of bone marrow ten days after treatment: MPCs (Example 2); format: in vivo, mice; conditions: ten days after 300 μg/kg s.c.; percentage of CD45- cells
Method: as §6, §7, §8

Megakaryocytes = experiment: Histology (H&E) megakaryocyte count in sternal bone marrow of healthy mice after single s.c. dose; format: in vivo
Method: as §1
Further, hematopoietic stem and progenitor cell (HSPC) populations in the femoral marrow were examined by flow cytometry (FIG. 2).

Endothelial cells (EC) = experiment: Flow cytometry of femoral bone marrow, total count/femur: CD31+ endothelial cells (Example 1); format: in vivo, mice; conditions: days 3 to 13 after 300 μg/kg s.c.
Method: In this study, normal male C57BL/6 mice were subcutaneously injected with RWJ-800088 (TPOm) at 300 μg/kg (Day 0). At days 3, 7, 10 and 14, the mice were sacrificed to collect the bone marrow and blood samples.
as §9, §3, §4
Live/Dead Zombie dye (Biolegend) in phosphate-buffered saline (PBS) at room temperature for 15 minutes. After, primary antibodies were diluted in 2% fetal bovine serum (FBS)-PBS solution and incubated with cells on ice for 30 minutes. Cells were washed with 2% FBS-PBS solution and incubated with secondary antibodies for 30 minutes. […]

Short-term HSCs = experiment: Flow cytometry of femoral bone marrow, total count/femur: short-term HSCs (Example 1); format: in vivo, mice; conditions: after treatment for 13 days
Method: as §1, §9, §3, §4, §10

“methoxypolyethyleneglyco120000-propionyl-L-Isoleucyl-L-Glutamyl-Glycyl-L-Prolyl-L-Threonyl-L-Leucyl-L-Arginyl-L-Glutaminyl-L-2-Naphthylalanyl-L-Leucyl-L-Alanyl-L-Alanyl-L-Arginyl-Sarcosyl-Ne-(methoxypolyethyleneglyco120000-propionyl-L-Isoleucyl-L-Glutamyl-Glycyl-L-Prolyl-L-Threonyl-L-Leucyl-L-Arginyl-L-Glutaminyl-L-2-Naphthylalanyl-L-Leucyl-L-Alanyl-L-Alanyl-L-Arginyl-Sarcosyl-)-Lysinamide ({methoxypolyethyleneglycol 20000‑propionyl}-IEGPTLRQ[2Nal]LAAR[Sar]K-NH2; also: dimer: second identical mPEG20000-propionyl-peptide-Sar arm on C-terminal Lys Ne) [RWJ-800088]” was tested, and the “LSK (lineage-, c-kit+, Sca-1+) population in femoral marrow” value (LSK) was “significantly increased”, the “HSC population in the bone marrow compartment” value [1] was “increases” and the “EPC population in femoral marrow, time course” value [2] was “began increasing on day 3 with a peak on day 6”. For the same substance, the “Myeloid progenitor cells (lineage-, c-kit+) in femoral marrow relative to naive” value ([3]; day 3 after treatment) was “significant increases”, the “Myeloid progenitor cells (lineage-, c-kit+) in femoral marrow” value ([3]; day 6 after treatment) was “significant decrease” and the “Myeloid progenitor cells (lineage-, c-kit+) in femoral marrow” value ([3]; day 13 after treatment) was “return to baseline”. The “EPC populations in the bone marrow” value [4] was “significant increase”, the “LSK, CD34-, CD48-, CD150+ long-term (LT-) HSCs in femoral marrow” value (Long-term HSCs) was “significantly increased” and the “MPC population in the bone marrow compartment” value [5] was “increases”. For the same substance, the “Number of megakaryocytes in sternal marrow” value (Megakaryocytes; 13 days after treatment, 300 μg/kg s.c.) was “dropped down to baseline”, the “Megakaryocytes in sternal marrow relative to naive animals” value (Megakaryocytes; days 3 and 6 after 300 μg/kg s.c.) was “significant increases” and the “EC (CD31+) population in femoral marrow, time course” value (Endothelial cells (EC)) was “increased beginning on day 3 and was sustained through day 13”. For the same substance, the “LSK, CD34+ short-term (ST-) HSC population in femoral marrow” value (Short-term HSCs) was “significantly increased”.
